Results published in patent US20250040914A1, “SYSTEMS AND METHODS FOR FOCUSED ULTRASOUND-ENABLED LIQUID BIOPSY” (Washington University, priority 2021, published 2025).

Assay: FUS-BBBO delivery of Evans Blue to the mouse brain under closed-loop feedback control (fluorescence imaging of brain slices)
Assay type: in vivo, Swiss mice
Details: for drug delivery area (average): area with fluorescence higher than 10 dB above background of brain tissue; for fluorescence intensity of the delivered Evans Blue, increase relative to the 0.5 dB group: brainstem ROI, 30 μL of 4% Evans Blue i.v. after FUS, 30 min after sonication
Procedure: 25 Swiss mice (8-10 weeks, ˜25 g body weight, female, Charles River Laboratory, Wilmington, MA, USA) were randomly assigned into five groups (n=5 for each group) to evaluate five different TCLs using the disclosed algorithm. Swiss mice (8-10 weeks, ˜25 g body weight, female, Charles River Laboratory, Wilmington, MA, USA) were housed in a room maintained at 22° C. and 55% relative humidity, with a 12-h/12-h light/dark cycle and access to standard laboratory chow and water. […] Four Swiss mice were selected to evaluate an existing closed-loop feedback control algorithm with the TCL defined based on the detection of sub-harmonics. During all experiments, mice were anesthetized with 1.5-2% isoflurane and stabilized using a stereotaxic apparatus (Kopf, Tujunga, CA, USA). A heating pad with a temperature kept at ˜38° C. was used to maintain the mouse's body temperature. Mice were prepared for FUS sonication by removing fur on top of the head with a depilatory cream (Nair, Church & Dwight Co., NJ, USA) and coupled to a water container using ultrasound gel. A catheter was placed into the tail vein for microbubbles and Evans blue injection.
A microbubble contrast agent (Definity, Lantheus Medical Imaging, North Billerica, MA) was diluted using sterile saline to a final concentration of approximately 8×10^8 microbubbles per mL. A bolus of diluted microbubble contrast agent (volume=30 μL) was injected intravenously into each mouse through a tail vein catheter. The injection was performed using a computer-controlled syringe pump (NE-1600; New Era Pump Systems Inc.). Microbubbles infusion was started 15 s before FUS sonication to allow microbubbles to flow through the tail vein catheter and reach the mouse brain. The infusion lasted until the end of sonication at a constant rate of 12.8 μL/min. All mice were treated by FUS with output pressure controlled in real-time using the disclosed PCD-based closed-loop feedback control algorithm. The treatment procedure followed a two-step process. A representative example of sonication sequence and detected cavitation level is illustrated in FIG. 20.
A baseline stable cavitation (SC) level was established for each mouse with dummy FUS sonication after injecting the microbubbles. FUS sonication was performed using a pulse repetition frequency of 2 Hz, a pulse length of 6.7 ms burst (i.e., duty cycle: 1.33%), and a sonication duration of 5 s. The output pressure of FUS was 0.2 MPa (all pressures reported were the peak negative pressures calibrated in water). This pressure was selected because it was the lowest pressure at which the microbubble cavitation signal was higher than the noise level without microbubble injection and lower than the pressures needed to induce BBB disruption. During the sonication by each FUS pulse, acoustic emission from microbubbles was recorded by the PCD transducer and processed by a Fast-Fourier transform (FFT) algorithm. SC level was calculated by summing the magnitude of the spectrum within a ±0.02 MHz bandwidth at the third harmonic (i.e., 4.5 MHz) of the FUS transducer. The third harmonic emission was chosen because it was at the center frequency of the PCD transducer. Ten PCD signals were acquired, and the average of SC levels calculated from these ten signals was used to define the baseline SC level.
After establishing the baseline SC level as described above, the mice were further subjected to FUS sonication using the FUS-BBBO with real-time feedback control disclosed herein. During FUS sonication with microbubbles infusion, cavitation was monitored by PCD in real-time, and a custom closed-loop feedback control algorithm was used to control the SC level to be at different TCLs defined to be 0.5 dB, 1 dB, 2 dB, 3 dB, or 4 dB above the baseline SC level. […]

Cc1cc(-c2ccc(/N=N/c3ccc4c(S(=O)(=O)O)cc(S(=O)(=O)O)c(N)c4c3O)c(C)c2)ccc1/N=N/c1ccc2c(S(=O)(=O)O)cc(S(=O)(=O)O)c(N)c2c1O [Evans Blue]
drug delivery area (average) (TCL 0.5 dB): 9.6 mm^2
fluorescence intensity of the delivered Evans Blue, increase relative to the 0.5 dB group (TCL 1 dB above baseline SC level): 2.4 fold
fluorescence intensity of the delivered Evans Blue, increase relative to the 0.5 dB group (TCL 2 dB above baseline SC level): 5.3 fold
fluorescence intensity of the delivered Evans Blue, increase relative to the 0.5 dB group (TCL 3 dB above baseline SC level): 8.2 fold
drug delivery area, increase as TCL was raised from 0.5 dB to 3 dB (TCL 3 dB versus 0.5 dB): 11.7 fold
drug delivery area (average) (TCL 3 dB): 112.8 mm^2
fluorescence intensity and drug delivery area with respect to the values at a TCL of 3 dB (TCL 4 dB): slightly decreased
